# According to patent US20040087602A1, “Stabilized brivudine topical formulations” (priority 2001, published 2004):
# “And” between values parts separate entries of the source, which are not always exact repeats. Equal values may be shown once.
# Legend:
# [1] = test system: 13 clinical VZV strains; conditions: mean of 13 clinical VZV strains, in vitro; cited from earlier work
# [2] = test system: 23 clinical HSV-1 strains; conditions: mean of 23 clinical HSV-1 strains, in vitro; cited from earlier work
# [3] = photodegradation according to ICH guideline CPMP/ICH/279/95; format: physicochemical; conditions: unpacked samples without stabilizer, 9.6 hours at 49.5 W/m^2 (dose 475 Wh/m^2)
# Description: The degradation of brivudine was investigated according to the ICH (International Conference on Harmonization) guideline CPMP/ICH/279/95. […] The brivudine content decreases from about 100% to about 70% after irradiation. At the same time the samples show an increase of known and unknown impurities of about 30%.
# [4] = photo-stabilization test of cream, UV-lamp irradiation; format: physicochemical; conditions: 2 hours UV-lamp
# Description: Studies of photo-stabilization were conducted encapsulating the active ingredient in cyclodextrin-complexes (e.g. α-, β-, γ-cyclodextrin-complexes) or adding different stabilizers. Known photo-stabilizers like anti-oxidants (e.g. propylgallate, alfa-liponic acid), chemical UV-filters (e.g. octyl triazone) and pigments (titanium dioxide, zinc oxid, iron oxid yellow) were used. The efficiency of photo-stabilization was tested by determination of the content of brivudine after 2 hours of irradiation with UV-lamp (dose of 1 MED [Minimal […] dose, 24.8 Wh/m^2, UVA-light]. UVA-light was applied directly to the cream without primary packaging The higher the content of unchanged brivudine after irradiation, the better the photo-stability. […] The pigment iron oxide yellow at a concentration 20% w/w also gave about 85% brivudine content.
# [5] = test system: 20 clinical isolates (HSV-1); conditions: two similar assays, one value per assay; cited from earlier work
Structure (SMILES),mean IC50 in 13 clinical VZV strains [1] [µg/mL],mean IC50 in a panel of 23 clinical HSV-1 strains [2] [µg/mL],increase of known and unknown impurities [3],brivudine content after irradiation ([3]; from about 100%),"brivudine content after irradiation ([4]; iron oxide yellow 20% w/w, 1 MED)","brivudine final content after irradiation ([4]; titanium dioxide 20% w/w, 1 MED)","brivudine content after irradiation, % of the initial concentration ([4]; without photo-stabilizer, 5% w/w brivudine cream, 1 MED (24.8 Wh/m^2, UVA))",mean IC50 in a panel of 20 clinical isolates [5]
Nc1nc2c(ncn2COCCO)c(=O)[nH]1 [acyclovir],0.2,0.92,,,,,,
"O=c1[nH]c(=O)n([C@H]2C[C@H](O)[C@@H](CO)O2)cc1/C=C/Br [brivudine, (E)-5-(2-bromovinyl)-2′-deoxyuridine]",0.001,0.52,about 30%,about 70%,about 85%,about 85%,about 40%,
Nc1nc2c(ncn2CCC(CO)CO)c(=O)[nH]1 [penciclovir],0.91,,,,,,,0.6 µg/mL and 0.8 µg/mL
